Assay results: patent publication US20070196395A1, “Immunomodulatory compounds that target and inhibit the py'binding site of tyrosene kinase p56 lck sh2 domain” (priority 2003, published 2007)

Experiments:
[1] = target: SH2 domain of p56 Lck (Homo sapiens, UniProt P06239); experiment: Inhibition of binding of the CD3ζ ITAM2 peptide to the SH2 domain of p56 Lck (affinity precipitation from Jurkat cell lysate, immunoblot); settings: 100 μM; decreased blot intensity vs control
Description: In vitro Assay for the Inhibition of Binding of the CD3ζ ITAM2 Peptide to the SH2 Domain of p56 Lck. […] Inhibition of binding was assayed by affinity precipitation of p56Lck in cell lysates as follows.
Confluent cells were harvested, washed 3 times in chilled, sterile phosphate buffered saline (PBS, BioSource), and were resuspended (5×10^5 /ml) in lysis buffer containing 1% Triton X-100 (Fisher), 1 mM EDTA (Fisher), 0.2 mM sodium orthovanadate, 500 μM AEBSF, 150 nM aprotinin, 1 μM E-64, 0.5 mM EDTA, and 1 μM leupeptin (Protease Cocktail Set I, Calbiochem, San Diego, Calif.). The suspension was sonicated on ice at 60 W power (VibraCell, Sonics and Materials, Danbury, Conn.) for 6×5 second bursts with a 1 minute cooling period between bursts. The resulting lysate was then centrifuged at 20,000 x g (RC-5B, Sorvall, Newtown, Conn.) at 4° C., and the supernatent was used in the assay.
Putative inhibitors to be tested were freshly dissolved in dimethyl sulfoxide (DMSO, cell culture grade, Sigrna) at a concentration of 10 mM before the assay and 10 μl of this was added to 1 ml of cell lysate in 1.5 ml tubes (Sarstedt, Newton, North Carolina). The tubes were placed on an end-over-end rotator (Model C400110, Barnstead/Thermolyne, Dubuque, Iowa) at 4° C. and allowed to rotate for 30 minutes. 20 μl of a 50% slurry of the ITAM-conjugated agarose beads (in PBS; EM Science, Gibbstown, New Jersey) was then added to each tube, and tubes were rotated overnight.
The beads were washed 3 times in 800 μl lysis buffer. Excess lysis buffer was aspirated off, and 10 ml sample loading buffer containing 3% β-mercaptoethanol (Fisher) was added to the beads and, after brief vortexing and soiication, tubes were immersed in a boiling water bath for 2 minutes. They were then centrifuged and the supernatent was loaded onto 8% Tris-HCl gels (GeneMate, ISC Bioexpress, Kaysville, Utah) and run at 100 V for 1.5 hours in a Protean III Mini Gel Unit (Bio-Rad, Hercules, Calif.). The gels were transferred onto polyvinylidene fluoride membrane (Immobilon-P, Millipore, Bedford, Mass.) in a Mini Trans-Blot Electrophoretic Transfer Cell ,(Bio-Rad). The membrane was blocked with PBS (EM Science) solution containing 5% powdered milk (Nestle, Solon, Ohio) for 1 hour; exposed to primary antibody (anti-lck, rabbit polyclonal IgG, Upstate Biotechnologies, Lake Placid, N.Y.) at 1:5000 dilution in 1% w/v powdered milk (Nestle, Solon, Ohio) in PBST [PBS containing 0.5% v/v Tween 20 (Sigma, St. Louis, Mo.)] and washed 3 times for 5 minutes each in PBST. […]

[2] = tested on: lymphocytes from two different strains of mice (B6 black and balb/c); experiment: Mixed lymphocyte culture, 3H-thymidine uptake; format: cell-based, mouse; settings: 100 μM to 1 μM; biphasic = inhibition at 100 μM, activation at 1 μM
Description: 100 mM solutions of compounds were prepared in DMSO.
Mixed lymphocyte culture assays were performed where lymphocytes from two different strains of mice with different histocompatibility antigens were mixed. Due to the difference in the histocompatibility antigens, resting T cells from both strains of mice will undergo blast transformation and propagate. As in any T cell activation process, the activation of Lck is essential. Therefore, the modulation of activation of Lck can be quantified as the downstream modulation in the levels of ^3H-TdR incorporation into DNA. 24 out of the 34 identified compounds were tested […], with 13 compounds showing inhibitory activity at a 100 μM concentration (FIG. 2). Thus, over 50% of the compounds identified by the in vitro assay also show activity in the cellular functional assay at the conditions described herein. These compounds represent the most promising leads for further development. […] Such effects may be associated with the regulatory mechanism of p56 Lck.
Another readout assay that is used to measure biological response is a mixed lymphocyte culture assay in which lymphocytes from two. different strains of mice with different histocompatibility antigens are mixed. Due to the difference in the histocompatibility antigens, resting T cells from both strains of mice undergo blast transformation and propagate. As in any T cell activation process, the activation of p56^lck is essential. Therefore, the modulation of p56^lck activity can be quantified as the downstream modulation in the levels of [^3H]-TdR incorporation into DNA.
Lymph node or splenic lymphocytes are harvested from two different allogeneic strains of mice. Cells (1×10^6) from each strain are mixed in 96 well culture plates containing 200 μl of culture medium in the presence or absence of the compound (0.1˜100 μM) and cultured for 72 h. Six hours before harvest, 0.5 μCi of [^3H]-TdR is added to each well. […] Filters are washed with PBS and then with ethanol and [^3H]-TdR incorporated into DNA is measured using scintillation counting. […]

SH2 domain of p56 Lck, sequence (P06239 whole entry, the tested form may be a part): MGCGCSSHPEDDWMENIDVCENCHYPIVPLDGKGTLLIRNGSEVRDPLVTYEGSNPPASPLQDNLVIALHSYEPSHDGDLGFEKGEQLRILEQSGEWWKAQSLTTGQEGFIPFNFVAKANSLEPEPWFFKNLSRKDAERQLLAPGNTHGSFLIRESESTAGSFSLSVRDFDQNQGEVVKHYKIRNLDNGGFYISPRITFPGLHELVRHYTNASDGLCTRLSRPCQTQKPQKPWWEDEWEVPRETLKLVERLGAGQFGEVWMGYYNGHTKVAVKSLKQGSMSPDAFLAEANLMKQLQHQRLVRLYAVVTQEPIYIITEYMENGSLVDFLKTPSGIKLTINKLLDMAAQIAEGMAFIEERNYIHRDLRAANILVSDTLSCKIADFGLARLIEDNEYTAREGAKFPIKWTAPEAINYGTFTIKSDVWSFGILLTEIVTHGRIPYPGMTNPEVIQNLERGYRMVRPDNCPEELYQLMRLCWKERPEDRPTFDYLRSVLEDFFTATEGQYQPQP

O=C(O)CC1S/C(=N\N=C2\CCCc3ccccc32)NC1=O (stereo not shown) [Compound 245]
inhibition of p56 Lck SH2 domain association with phosphotyrosine-containing ITAM2 peptide [1]: significant inhibitory activities

N=C1S/C(=C/c2ccc(-c3cccc(C(=O)O)c3)o2)C(=O)N1c1ccc(F)cc1 [Compound 73]
activity profile in mixed lymphocyte culture assay across tested concentrations [2]: inhibition

Nc1nnc(SCc2ccc(C(=O)O)cc2)s1 [Compound 239]
inhibition of p56 Lck SH2 domain association with phosphotyrosine-containing ITAM2 peptide [1]: significant inhibitory activities

COc1ccc(OC)c(NC(=O)CCNC(=O)Cn2cnc3ccccc3c2=O)c1 [Compound 139]
activity profile in mixed lymphocyte culture assay across tested concentrations [2]: Biphasic

O=C(O)CSc1nsc(SCC(=O)O)n1 [Compound 232]
inhibition of p56 Lck SH2 domain association with phosphotyrosine-containing ITAM2 peptide [1]: significant inhibitory activities

O=C(O)CSc1cccnc1Sc1ccc(Cl)cc1 [Compound 262]
inhibition of p56 Lck SH2 domain association with phosphotyrosine-containing ITAM2 peptide [1]: significant inhibitory activities

Cc1ccc(NC(=O)c2cccc(NC(=O)c3ccccc3C(=O)O)c2)cc1C [Compound 99]
activity profile in mixed lymphocyte culture assay across tested concentrations [2]: Biphasic
